Drawing on ChEMBL document CHEMBL1143454, “Arylphthalazines: identification of a new phthalazine chemotype as inhibitors of VEGFR kinase” (Bioorg Med Chem Lett, 2005), this text covers IC50 and inhibition for ten compounds.

In assay [1] the target is Vascular endothelial growth factor receptor 2 (Homo sapiens, UniProt P35968). Nature of the assay: Inhibition of Vascular endothelial growth factor receptor 2 kinase phosphorylation of pGAT-biotin peptide.
Assay [2] concerns the target Vascular endothelial growth factor receptor 1 (Homo sapiens) (UniProt P17948). Nature of the assay: Percent inhibition of Vascular endothelial growth factor receptor 1 at 10 uM.

pIC50: −log10 of the molar value. Where only a bound is given, the exact number is not on record here.

Chain of Vascular endothelial growth factor receptor 2 (P35968 whole entry): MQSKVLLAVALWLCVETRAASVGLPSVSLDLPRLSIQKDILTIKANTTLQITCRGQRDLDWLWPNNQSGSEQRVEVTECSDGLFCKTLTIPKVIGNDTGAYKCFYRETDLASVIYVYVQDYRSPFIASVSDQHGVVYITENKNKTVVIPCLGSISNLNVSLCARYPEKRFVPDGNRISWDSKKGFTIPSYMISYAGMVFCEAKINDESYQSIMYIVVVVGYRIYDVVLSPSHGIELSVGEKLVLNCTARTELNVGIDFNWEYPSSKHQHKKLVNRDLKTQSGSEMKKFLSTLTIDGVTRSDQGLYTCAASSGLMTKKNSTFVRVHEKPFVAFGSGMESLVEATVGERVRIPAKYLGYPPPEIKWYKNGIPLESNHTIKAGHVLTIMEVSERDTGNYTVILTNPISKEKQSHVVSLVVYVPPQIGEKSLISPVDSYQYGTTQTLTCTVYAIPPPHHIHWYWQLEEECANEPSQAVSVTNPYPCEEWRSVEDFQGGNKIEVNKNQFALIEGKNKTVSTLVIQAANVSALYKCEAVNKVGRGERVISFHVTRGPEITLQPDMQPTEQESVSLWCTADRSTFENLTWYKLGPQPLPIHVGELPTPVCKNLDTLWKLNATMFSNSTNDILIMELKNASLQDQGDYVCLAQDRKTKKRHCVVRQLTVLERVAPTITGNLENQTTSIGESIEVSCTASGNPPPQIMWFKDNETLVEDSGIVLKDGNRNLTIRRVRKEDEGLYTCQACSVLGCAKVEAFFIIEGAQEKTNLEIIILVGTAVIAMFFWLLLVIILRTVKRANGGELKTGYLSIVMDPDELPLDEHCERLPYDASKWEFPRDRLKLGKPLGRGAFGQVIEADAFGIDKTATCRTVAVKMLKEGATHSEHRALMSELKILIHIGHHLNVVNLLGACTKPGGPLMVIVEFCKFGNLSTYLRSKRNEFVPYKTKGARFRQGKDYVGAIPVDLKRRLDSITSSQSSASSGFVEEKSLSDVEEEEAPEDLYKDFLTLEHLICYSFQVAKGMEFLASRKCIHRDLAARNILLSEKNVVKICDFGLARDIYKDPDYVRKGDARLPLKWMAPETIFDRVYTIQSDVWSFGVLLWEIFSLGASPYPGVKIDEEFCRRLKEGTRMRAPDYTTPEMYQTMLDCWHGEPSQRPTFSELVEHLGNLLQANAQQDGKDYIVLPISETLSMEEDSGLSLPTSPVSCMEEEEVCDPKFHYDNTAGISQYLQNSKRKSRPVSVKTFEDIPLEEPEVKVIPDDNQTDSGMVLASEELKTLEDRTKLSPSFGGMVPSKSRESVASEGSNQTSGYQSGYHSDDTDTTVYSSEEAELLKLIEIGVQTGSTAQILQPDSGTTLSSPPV
Chain of Vascular endothelial growth factor receptor 1 (Homo sapiens) (P17948 whole entry): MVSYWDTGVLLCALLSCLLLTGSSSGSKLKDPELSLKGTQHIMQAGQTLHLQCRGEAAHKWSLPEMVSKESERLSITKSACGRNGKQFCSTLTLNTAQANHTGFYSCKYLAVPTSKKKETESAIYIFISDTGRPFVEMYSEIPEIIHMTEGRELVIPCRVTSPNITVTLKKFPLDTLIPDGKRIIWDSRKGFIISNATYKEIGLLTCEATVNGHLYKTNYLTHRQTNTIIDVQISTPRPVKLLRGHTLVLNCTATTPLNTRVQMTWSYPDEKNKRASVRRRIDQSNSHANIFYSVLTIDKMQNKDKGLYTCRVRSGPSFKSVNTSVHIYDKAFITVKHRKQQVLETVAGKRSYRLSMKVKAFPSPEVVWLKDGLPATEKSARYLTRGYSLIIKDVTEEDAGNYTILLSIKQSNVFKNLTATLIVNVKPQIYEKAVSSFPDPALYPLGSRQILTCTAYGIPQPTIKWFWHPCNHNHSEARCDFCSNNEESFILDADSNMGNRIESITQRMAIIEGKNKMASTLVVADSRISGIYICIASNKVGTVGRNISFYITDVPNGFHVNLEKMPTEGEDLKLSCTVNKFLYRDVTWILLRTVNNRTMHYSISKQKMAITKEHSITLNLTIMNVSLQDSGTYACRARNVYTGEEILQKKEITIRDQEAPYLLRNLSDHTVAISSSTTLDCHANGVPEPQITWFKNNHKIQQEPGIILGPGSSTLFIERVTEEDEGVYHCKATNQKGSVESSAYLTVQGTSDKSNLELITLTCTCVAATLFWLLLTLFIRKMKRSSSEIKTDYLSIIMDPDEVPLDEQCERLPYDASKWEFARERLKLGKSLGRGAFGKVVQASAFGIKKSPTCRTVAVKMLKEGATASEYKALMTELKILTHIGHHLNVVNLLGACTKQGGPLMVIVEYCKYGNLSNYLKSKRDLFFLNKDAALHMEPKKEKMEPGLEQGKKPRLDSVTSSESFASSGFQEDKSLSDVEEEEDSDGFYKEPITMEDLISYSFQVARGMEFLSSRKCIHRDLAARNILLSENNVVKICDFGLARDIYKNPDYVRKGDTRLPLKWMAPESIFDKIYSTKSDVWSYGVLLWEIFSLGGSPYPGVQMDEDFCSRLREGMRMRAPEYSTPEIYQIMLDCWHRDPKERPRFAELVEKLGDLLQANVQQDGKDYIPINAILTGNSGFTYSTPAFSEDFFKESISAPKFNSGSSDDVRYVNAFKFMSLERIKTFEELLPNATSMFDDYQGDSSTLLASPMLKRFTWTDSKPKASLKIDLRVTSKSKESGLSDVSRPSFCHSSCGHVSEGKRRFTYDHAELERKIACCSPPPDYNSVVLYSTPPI

In turn, `CCOc1ccc(-c2nnc(Nc3ccc(C)cc3)c3ccccc23)cc1` showed a pIC50 in assay [1] below 5.00.
Compound `CC(C)(C)c1cccc(Nc2nnc(-c3ccc(C(N)=O)cc3)c3ccccc23)c1` registered an inhibition in assay [2] of 60%.
In assay [1], `Cc1ccc(-c2nnc(Nc3ccc(OC(F)(F)Cl)cc3)c3ccccc23)cc1S(=O)(=O)NC(C)C` had a pIC50 below 5.00.
Compound `O=C(NCCO)c1ccc(-c2nnc(Nc3ccc(OC(F)(F)Cl)cc3)c3ccccc23)cc1` had a pIC50 in assay [1] of 5.96.
For the compound `CC(C)(C)NC(=O)c1ccc(-c2nnc(Nc3ccc(OC(F)(F)Cl)cc3)c3ccccc23)cc1`, in assay [1], the negative logarithm of the IC50 (pIC50) is below 5.00.
Compound `NC(=O)c1ccc(-c2nnc(Nc3cccc(Br)c3)c3ccccc23)cc1` returned an inhibition in assay [2] of 51%.
As for `NC(=O)c1ccc(-c2nnc(Nc3ccc(Br)cc3)c3ccccc23)cc1`, in assay [2], the inhibition is 53%.
On the same count and under the same terms, as for `CC(C)(C)c1ccc(Nc2nnc(-c3ccc(C(N)=O)cc3)c3ccccc23)cc1`, the figure is 73%.
`NC(=O)c1ccc(-c2nnc(Nc3ccc(S(N)(=O)=O)cc3)c3ccccc23)cc1` gave a negative logarithm of the IC50 (pIC50) in assay [1] below 5.00.
Turning to `COc1ccc(Nc2nnc(-c3ccc(C(N)=O)cc3)c3ccccc23)cc1`, the pIC50 in assay [1] is 5.70.

As a reminder, the pIC50 is the IC50 on a negative log10 scale, so that one unit is a factor of ten. For orientation: inhibition means the share of the control response that was lost under treatment. A lower inhibition goes with little suppression.
